Results from US20220193270A1, “METHOD FOR ENHANCING TUMOR GROWTH” (MINERVA BIOTECHNOLOGIES CORPORATION, priority 2013, published 2022).

Assays:
[1] = tested on: MUC1-positive T47D breast cancer cells; assay: RT-PCR of cancer stem cell markers and chromatin rearrangement factors in T47D cells cultured in serum-free minimal media with agent; format: cell-based, human
Protocol: (§1) Example 3: Agents that are able to maintain stem cells in the naïve state transform cancer cells into cancer stem cells wherein only a small number of cells are required for engraftment. Cancer cells were cultured according to standard practice. In the controls, the cancer cells were cultured in their normal media: RPMI for T47D breast cancer cells, DU145 and PC3 prostate cancer cells. However, the test agents, recombinant proteins human NME1 dimers, bacterial HSP593 NME1 dimers, human NME7-AB and 2i, were added to a serum-free minimal media to eliminate potential interference from the many growth factors and cytokines in serum.
Serum-free Minimal Media 500 mL includes the following components: 394 mL DMEM/F12, GlutaMAX; 100 mL Knockout™ Serum Replacement; 5.0 mL 100×MEM Non-essential Amino Acid Solution; 0.9 mL P-mercaptoethanol, 55 mM stock.
(§2) To this serum-free minimal media, rhNME1 (aka NM23) was added to a final concentration of 8 nM, or bacterial HSP593 recombinant NME1 was added to a final concentration of 8 nM, or rhNME7-AB was added to a final concentration of 4 nM, or 2i inhibitors, PD0325901 and CHIR99021, which inhibit the MAP kinase pathway and GSK3, respectively, were added to a final concentration of 3 μM and 1 μM.
When a rho kinase inhibitor, “Ri” or “ROCi”, was added it was Y27632 from Stemgent (Cambridge, Mass.), added immediately before use to a final concentration of 10 uM.
Example 3a: Breast cancer T47D cells were cultured either in the traditional RPMI growth media or in a minimal stem cell media to which was added either human NME1 dimers, also known as NM23-H1, bacterial HSP593 NME1 dimers, human NME7-AB, or kinase inhibitors known as ‘2i’. What these agents have in common is that they are each able to promote the growth of stem cells in the naive state or are able to revert primed state stem cells to the less mature naive state. We observed that some of the T47D cancer cells cultured in any of these agents became non-adherent. These ‘floaters’ were also morphologically different. The addition of a rho kinase inhibitor, called ‘Ri’ or ‘ROCP here caused most of the cells to remain attached to the surface. […] When a rho kinase inhibitor is added, all the cells remain attached but the RT-PCR measurements indicate that the resultant measure is of a mixture of the cells that were transformed and those that were not or were not yet.
Example 3c: In this example, the effect of ‘2i’ inhibitors on cancer cells was tested. Recall that 2i is the name given to 2 small molecules, […] that inhibit the MAP kinase pathway and GSK3 respectively. […] In this experiment, we cultured MUCl-positive T47D breast cancer cells in minimal media to which was added either 2i or NME7-AB.

[2] = tested on: DU145 MUC1-positive prostate cancer cells; assay: RT-PCR of cancer stem cell markers in DU145 cells cultured with agent; format: cell-based, human; details: after 9-10 passages; FIG. 11b
Protocol: as §1, §2
Example 3b: Prostate cancer cells were also cultured as described above with either human NME1 dimers, bacterial NME1 dimers, NME7-AB, or 2i inhibitors. […] Thus, the RT-PCR measurements of the cancer stem cell markers are lower than that of the T47D cells, which could be explained by it being the measure of transformed cells and non-transformed cells. In the case of breast cancer cells, we were able to isolate the fully transformed cancer stem cells by collecting the floating cells, but were not able to do so here. DU145 MUC1-positive prostate cancer cells were cultured in RPMI media as a control and in minimal media to which was added recombinant human NME1/NM23 dimers, bacterial HSP593 dimers, or human NME7-AB. […] There was about a 2-8-fold increase in OCT4, MUC1 and CDH1/E-cadherin. However, after serial passaging under these same culture conditions, the increases in expression of cancer stem cell markers became more pronounced. We reasoned that serial passaging allowed more time for cells to transform since we could not rapidly collect floating cells.

[3] = tested on: PC3 MUC1-negative prostate cancer cells; assay: RT-PCR of stem cell markers in PC3 cells cultured with agent; format: cell-based, human
Protocol: as §1, §2
PC3 MUCl-negative prostate cancer cells were also tested for their ability to transform into cancer stem cells when cultured in agents that are able to maintain stem cells in the naïve state. PC3 cells were cultured as described above with either human NME1 dimers, bacterial NME1 dimers or NME7-AB. […] Thus, the RT-PCR measurements of the cancer stem cell markers may be lower because measurements will be the average of transformed cells and non-transformed cells.

human fibroblasts = assay: RT-PCR of stem/cancer markers and chromatin rearrangement factors in fibroblasts cultured with NME proteins; format: cell-based; details: after 15-20 days in culture
Protocol: Agents that are able to maintain stem cells in the naive state are also able to transform somatic cells to a cancer or stem-like state. Human NME1 dimer or human NME7 are able to make somatic cells revert to a less mature state, expressing stem and cancer cell markers. Bacterial NME from HSP 593 was tested alongside the human homologs to determine if it could mimic their function by being able to revert somatic cells to a cancer-like state. Human fibroblasts were cultured in a serum-free minimal base media with either HSP 593, human NME1 dimers or human NME7-AB as the only growth factor or cytokine. […] Recalling that stem cells and metastatic cancer cells can grow anchorage-independently, we repeated the experiments but this time a rho kinase inhibitor was added to one set of cells to make the cells adhere to the surface. […] Photos of the experiment show the dramatic change in morphology as the fibroblasts revert when cultured in human or bacterial NME, FIGS. 52-59. The relative order of efficiency of reverting somatic cells to a less mature state was NME7>NME1 dimers >NME1 bacterial. […] However, Bacterial NME from HSP 593 apparently up-regulates expression of human NME7 and NME1.
Example 3d: In this example, fibroblast cells were cultured in the presence of recombinant human NME1/NM23 dimers, bacterial HSP593 NME1 dimers or NME7-AB. The fibroblasts were cultured in their normal media as a control, which is for 500 mL, 445 mL DMEM high glucose base media, 5 mL GlutaMAX and 50 mL of fetal bovine serum (FBS). After 15-20 days in culture with either NME1/NM23 dimers, bacterial HSP593 NME1 dimers or NME7-AB, the morphology of the cells completely changed so that they no longer were recognizable as fibroblasts. […] Here, ‘minus ROCi’ refers to cells that became non-adherent and floated off the surface.

[4] = tested on: Human HES-3 embryonic stem cells; assay: Human embryonic stem cell culture with NME protein as only growth factor; format: cell-based; details: serum-free minimal base media, agent as the only growth factor or cytokine
Description: Factors that are able to maintain stem cells in the naive state are also able to transform cells to a cancer-like or stem-like state and are also able to transform cancer cells to a cancer stem cell state or a more metastatic state. Herein, we have shown several examples of bacterial NME1 being able to function like human NME1 dimers, which are also able to function like NME7 or NME7-AB. However, the primary example that these factors function in a very similar way is their ability to promote the growth of stem cells, inhibit differentiation and maintain them in the naive state. […] Human HES-3 embryonic stem cells were cultured in a serum-free minimal base media with either HSP 593, human NME1 or NME7-dimers or human NME7-AB as the only growth factor or cytokine. […] Several examples have been presented here that indicate that contacting cells with an agent or agents that are able to revert stem cells from the primed state to the less mature naive state are also able to revert a wide variety of cell types to a less mature state: somatic cells to stem or progenitor cells or cancer cells to more metastatic state also called cancer stem cell state. Therefore, the invention is not meant to be limited to a specific cell type or a specific cancer cell type.

## NME1 dimers: recombinant human NM23, also called NME1, dimers that bear the 5120G mutation that stabilizes dimers
[1]; FIG. 7
  expression of CDH1 (E-cadherin), MUC1 and NANOG: increases
  expression of CXCR4, SOX2 and OCT4: dramatic increases
  expression of stem cell markers KLF2 and KLF4: modest increases
[1]; cancer cells cultured in agent, FIG. 13, FIG. 14
  expression of MBD3, CHD4, BRD4 and JMJD6: naturally suppressed
[2]
  expression of NANOG and OCT4: significant increases
  increase in the expression of CDH1/E-cadherin: 6 fold
[3]; after passage in agent, FIG. 12a
  expression of stem cell markers SOX2, OCT4 and NANOG: modest increases
[3]; serial passaging in the media, FIG. 12b
  expression of cancer stem cell or stem cell markers: decreased
Human fibroblasts; FIG. 15
  expression of stem cell marker genes OCT4 and NANOG: greatly increased expression
Human fibroblasts; FIG. 16
  expression of BRD4, JMJD6, MBD3 and CHD4: decreased expression
[4]
  support of human stem cell growth: fully supported human stem cell growth
